Data published in article PMC5903829 (Experimental & Molecular Medicine, 2018).

System: Caco-2 cells
Assay: Trans-epithelial electrical resistance in Caco-2 monolayers
Assay type: cell-based, human
Conditions: compound C 30 min pre-treatment, then LPS or LPS+AmEV

c1cc(-c2cnn3cc(-c4ccc(OCCN5CCCCC5)cc4)cnc23)ccn1 [compound C]
AmEVs' ability to improve LPS-induced loss of barrier integrity (TEER) in the presence of AMPK inhibitor: abolished
